Experiment: solubility in water
Format: physicochemical

CC#C[C@]1(OC(=O)CCC(=O)O)CC[C@H]2[C@@H]3CCC4=CC(=O)CCC4=C3[C@@H](c3ccc(N(C)C(C)C)cc3)C[C@@]21C [Example 18, Sodium and 11β-[4(N-methyl-isopropylamino)-phenyl]-17α-(1-propynyl)-Δ^4,9-estradien-3-one-17β-yl succinate]
solubility: > 250 mg/mL
